Data published in patent US20100204277A1, “Compositions and Methods for Controlling Infestation” (HATCHTECH PTY LTD., priority 2007, published 2010).
Where two headings read alike, the source gives them in different places. Non-standard residues stand in square brackets, D forms with d. Residues, ends and D or L forms follow the SMILES beside them. *: point of attachment. Sta = CC(C)C[C@H](N)[C@@H](O)CC(=O)O; Isovaleryl = CC(C)CC(=O)*

Assays:
[1] = test system: Lice (L) / Plutella (P) eggs; assay type: in vivo
Protocol: Log LD50 is obtained from the observed percentage ovicidal activity by conversion using a modified logit transformation. The observed percentage ovicidal activity values were transformed using the equation:
The additional 5% was used to allow a number to be calculated when 0% and 100% activity was observed. The BA is a crude correction to the log of the concentration at which the compounds were tested. Correlation between BA values and LD50 allows the calculation of Log LD50. […] A number of metal chelating agents with potential for inhibiting the remodelling events associated with thin membrane egg hatching in lice were analysed by comparing their percentage ovicidal activity in lice at different concentrations, their logit calculated pLD50, Pref pLD50, Activity class, clogP and molar refractivity were determined.

[2] = test system: Plutella xylostella eggs (Waite strain); assay: Plutella xylostella egg hatch (egg dip)
Protocol: Several hundred Plutella xylostella eggs (Waite strain) were collected, that had been laid over a 24 hour period.
The egg masses were then placed in a humid box at 25° C. until egg hatch. Control eggs were exposed to absolute methanol as described above. At day 6 post laying the eggs were assessed from the different treatments and the percentage of egg hatch determined relative to the control as shown in Table 9.
Batches of Plutella eggs that were laid on either fine cloth or parafilm were dipped in a specific inhibitor solution for between 2-10 seconds, the excess solution was drained by blotting with dry tissue paper. The egg masses were then placed in a humid box at 25 degrees until egg hatch. Control eggs were exposed to absolute methanol as described above or not treated. At day 6 post laying the eggs were assessed from the different treatments and the percentage of egg hatch determined relative to the controls as shown in Tables 10 and 11.
The egg masses were then placed in a humid box at 25 degrees until egg hatch. Control eggs were exposed to absolute ethanol as described above. On day 6 post laying the eggs were assessed from the different treatments and the percentage of egg hatch determined relative to the control.

[3] = test system: Plutella xylostella eggs; assay: Glass house ovicidal test, Plutella eggs on cabbage plants; assay type: in vivo; settings: 10 eggs per plant
Text: A number of treatments and replicates were set up in the glass house using young cabbage plants that were at the 4-5 leaf stage. Plutella xylostella eggs were laid by gravid females on the leaves such that each plant contained 10 eggs. The plants were sprayed with a commercial ovicide or using the compounds 5,5′-dimethyl-2,2′-dipyridyl and 5,5′ diethyl-2,2′-dipyridyl in a formulation at the rate of 200 L/Ha using a track sprayer. Controls of water only or Placebo only were also included. The ovicidal efficacy was monitored over a number of days an the number of eggs hatching and caterpillar larvae emerging recorded (Table 22).

[4] = test system: proteases in louse egg shell washings (ESW); assay: Gelatine substrate SDS-PAGE of louse egg shell washings incubated with protease inhibitors; assay type: biochemical, Pediculus humanus humanus; settings: gelatine SDS-PAGE strips; EDTA 10 mM, 1,10-phenanthroline 10 mM, PMSF 5 mM, E-64 10 μM, Pepstatin 5 μM; 3 hrs at 37° C.
Protocol: Within 12 hours of hatching 50 body lice eggs (Pediculus humanus humanus) were removed from the hair and placed in a 1 mL eppendorf tube. 20 μL of distilled water was added to the unhatched eggs and the preparation incubated for 30 minutes at 32° C. The 20 μL was recovered, freeze dried and stored at −70° C. This sample was referred to as sample 1. A number of other samples were also collected as described. Sample 2 was collected by removing the unhatched louse eggs from four hairs that were approximately 3 cm long, cutting the hair into 0.5 cm lengths, and placing them into a microfuge tube containing 20 μl of distilled water and incubating at 32° C. for 30 minutes. Sample 3 was collected as for sample 2, but the hair was placed in a tube containing 10 mL of 1% sodium hypochlorite for 1 minute followed by five 1 minute washes in 25 mL of distilled water to remove the sodium hypochlorite before being incubated in a microfuge tube containing 20 μl of distilled water and incubated as for Sample 2. Sample 4 was collected from unhatched eggs which were removed from the hair and washed with 1% sodium hypochlorite and incubated in 20 μl of distilled water in the same manner as the hair in Sample 3. Finally, Sample 5 was collected from eggs that were within 24 hrs of hatching which were washed with 1% sodium hypochlorite, then returned to the incubator at 32° C. until they hatched, the empty egg shells collected 0-2 hrs after egg-hatching, placed in a 1 mL microfuge tube containing 20 μl of distilled water and incubated as for Samples 1-4. For all samples 1-5 the 20 μl of fluid was recovered, freeze-dried and stored at −70° C. The washings recovered from these freshly hatched egg shells are referred to as egg-shell-washings (ESWs). In order to look for the presence of proteases present in these different samples, the freeze-dried samples were resuspended in 15 μL of non-reducing SDS sample buffer, centrifuged at 10,000 g for 2 minutes and the entire 15 μL loaded on to 10% gelatine substrate SDS-PAGE gels. Gels were run at 4° C. for 10 minutes at 10 mA followed by a further 25 minutes at 15 mA per gel. They were then incubated for 2×20 minutes in a 2.5% Triton-X 100 solution followed by a three hour incubation in 0.1M Tris/HCl containing 1 mM CaCl2 pH 8.0. Activity was detected as clear areas on the gel the result of protease activity degrading the gelatine within the gel.
Protease activity in the ESWs from louse eggs was also examined using two-dimensional gel electrophoresis. It was necessary to collect large numbers of freshly hatched egg shells. Following egglaying onto pieces of cloth, adult female lice were removed and the cloth with the eggs washed with 1% sodium hypochlorite as for collection of ESWs. The eggs were then returned to the incubator and permitted to hatch. Typically 100 to 500 hatched egg shells were collected (0-2 hours post hatching), placed in a microfuge tube containing 200 μl of distilled water, incubated and sample treated as described above. For analysis, ESWs were resuspended in rehydration buffer (8 M Urea, 2% 3-[(3-cholamidopropyl) dimethylammonio]-1-propanesulfonate 2% Immobilised pH gradient buffer 3-10 (Amersham Phamacia Biotech, Uppsala, Sweden)) and used to rehydrate 7 cm Immobiline Dry strips pH 3-10 (Amersham Bioscience) overnight. Strips were transferred to the Multiphor II (Pharmacia, Sweden) apparatus, electrophoresed in the first dimension at 200 V for 1 min, increasing to 3,500 V over the next 90 min followed by 65 min at 3,500 V, equilibrated (6 M urea, 30% glycerol, 50 mM Tris pH 8.8 and 2% SDS) and then run on a 10% SDS-PAGE gel containing 0.1% gelatin for the second dimension. The gel was then run and developed as previously described.
10% SDS-PAGE gelatine substrate gels were loaded with freeze dried egg shell washings from 100 lice eggs that had been resuspended in 50 μL of non-reducing sample buffer with samples run at 10 μL per lane. […]

[5] = 10 mM (200 L/Ha), with wetting agent 0.3 ml/L
[6] = 20 mM (200 L/Ha), with wetting agent 0.3 ml/L

N[C@@H]1CCCC[C@H]1O (relative stereo) [Trans-2-aminocyclohexanol]
Activity class 0 = inactive 1 = low 2 = med 3 = high ([1]; 10 mM, Lice/Plutella: ND P): 0 (A pLD50 value less than 2 is considered inactive (Class 0))

Cc1cc(C)cc(C(=O)CC(=O)c2cc(C)cc(C)c2)c1 [1,3-Bis-(3,5-dimethyl-phenyl)-propane-1,3-dione]
Activity class 0 = inactive 1 = low 2 = med 3 = high ([1]; 10 mM, Lice/Plutella: ND P): 0 (A pLD50 value less than 2 is considered inactive (Class 0))

COc1ccc(C(=O)CC(=O)c2ccc(OC)cc2)cc1 [1,3-Bis-(4-methoxy-phenyl)-propane-1,3-dione]
Activity class 0 = inactive 1 = low 2 = med 3 = high ([1]; 10 mM, Lice/Plutella: ND P): 0 (A pLD50 value less than 2 is considered inactive (Class 0))

CC(C)(C)c1ccc(C(=O)CC(=O)c2ccc(C(C)(C)C)cc2)cc1 [1,3-Bis-(4-tert-butyl-phenyl)-propane-1,3-dione]
Activity class 0 = inactive 1 = low 2 = med 3 = high ([1]; 10 mM, Lice/Plutella: ND P): 0 (A pLD50 value less than 2 is considered inactive (Class 0))

O=C(CC(=O)c1cccnc1)c1cccnc1 [1,3-dipyridin-3-yl-propane-1,3-dione]
Activity class 0 = inactive 1 = low 2 = med 3 = high ([1]; 10 mM, Lice/Plutella: ND P): 0 (A pLD50 value less than 2 is considered inactive (Class 0))

COc1ccc(C(=O)CC(=O)c2ccc(C(C)(C)C)cc2)cc1 [1-(4-tert-butylphenyl)-3-(4-methoxyphenyl)-propane-1,3-dione]
Activity class 0 = inactive 1 = low 2 = med 3 = high ([1]; 10 mM, Lice/Plutella: L P): 0 (A pLD50 value less than 2 is considered inactive (Class 0))

c1ccc2nc(-c3ccc4ccccc4n3)ccc2c1 [2,2′-biquinoline]
Activity class 0 = inactive 1 = low 2 = med 3 = high ([1]; 10 mM, Lice/Plutella: L P): 0 (A pLD50 value less than 2 is considered inactive (Class 0))

c1ccc(-c2ccc3ccccc3n2)nc1 [2-(2-pyridinyl)quinoline]
Activity class 0 = inactive 1 = low 2 = med 3 = high ([1]; 10 mM, Lice/Plutella: P): 1 (a pLD50 value between 2 and 3 is considered weakly active (Class 1))
% Inhibition of egg hatch relative to control ([2]; 10 mM, Example 18, eggs on fine cloth dipped approximately 2 seconds, day 6 post laying): able to inhibit

CC(=O)C1CCCCC1=O (stereo not shown) [2-Acetylcyclohexanone]
Activity class 0 = inactive 1 = low 2 = med 3 = high ([1]; 10 mM, Lice/Plutella: ND P): 0 (A pLD50 value less than 2 is considered inactive (Class 0))

c1ccc(Cc2ccccn2)cc1 [2-benzyl-pyridine]
Activity class 0 = inactive 1 = low 2 = med 3 = high ([1]; 10 mM, Lice/Plutella: L P): 0 (A pLD50 value less than 2 is considered inactive (Class 0))

O=C(CC(=O)C(F)(F)F)c1ccccc1 [4,4,4-Trifluoro-1-phenyl-butane-1,3-dione]
Activity class 0 = inactive 1 = low 2 = med 3 = high ([1]; 10 mM, Lice/Plutella: L P): 0 (A pLD50 value less than 2 is considered inactive (Class 0))

Cc1ccnc(-c2cc(C)ccn2)c1 [4,4′-dimethyl-2,2′-dipyridyl]
egg hatching of Plutella eggs (Tables 10 and 11) ([2]; 10 and 1 mM, cloth or parafilm): significantly inhibit

c1cnc2ccc3ncccc3c2c1 [4,7-phenanthroline]
Activity class 0 = inactive 1 = low 2 = med 3 = high ([1]; 10 mM, Lice/Plutella: L P): 0 (A pLD50 value less than 2 is considered inactive (Class 0))

c1ccc(-c2cc(N3CCOCC3)c3ccccc3n2)nc1 [4-Morpholin-4-yl-2-pyridin-2-yl-quinoline]
Activity class 0 = inactive 1 = low 2 = med 3 = high ([1]; 10 mM, Lice/Plutella: L P): 0 (A pLD50 value less than 2 is considered inactive (Class 0))

CCc1ccc(-c2ccc(CC)cn2)nc1 [5,5′diethyl-2,2′-dipyridyl]
# LARVAE EMERGED 0-24 h ([3]; 10 mM (200 L/Ha), No Wetting Agent): 0
# LARVAE EMERGED 0-24 h [3, 5]: 0

Cc1ccc(-c2ccc(C)cn2)nc1 [5,5′dimethyl-2,2′-dipyridyl]
# LARVAE EMERGED 0-24 h [3, 5]: 0
# LARVAE EMERGED 24-48 h [3, 5]: 0
# LARVAE EMERGED 0-24 h [3, 6]: 0
# LARVAE EMERGED 24-48 h [3, 6]: 0
# LARVAE EMERGED 48-72 h ([3]; 20 mM (200 L/Ha), with wetting agent 0.3 ml/L, 48-72 h): 0

CC(=O)NO [Acetohydroxamic acid]
Activity class 0 = inactive 1 = low 2 = med 3 = high ([1]; 10 mM, Lice/Plutella: ND P): 0 (A pLD50 value less than 2 is considered inactive (Class 0))

CC(=O)CC(=O)c1ccccc1 [Benzoylacetone]
Activity class 0 = inactive 1 = low 2 = med 3 = high ([1]; 1 mM, Lice/Plutella: ND P): 0 (A pLD50 value less than 2 is considered inactive (Class 0))
Activity class 0 = inactive 1 = low 2 = med 3 = high ([1]; 10 mM, Lice/Plutella: ND P): 1 (a pLD50 value between 2 and 3 is considered weakly active (Class 1))

O=C(CC(=O)c1ccccc1)c1ccccc1 [Dibenzoyl methane]
Activity class 0 = inactive 1 = low 2 = med 3 = high ([1]; 10 mM, Lice/Plutella: P): 1 (a pLD50 value between 2 and 3 is considered weakly active (Class 1))

CC(C)C[C@H](NC(=O)[C@H]1O[C@@H]1C(=O)O)C(=O)NCCCCN=C(N)N [E-64]
protease activity of egg shell washings compared to untreated controls [4]: no apparent reduction in protease activity

O=C(O)CN(CCN(CC(=O)O)CC(=O)O)CC(=O)O [EDTA, ethylenediamine tetraacetic acid]
protease activity of egg shell washings compared to untreated controls [4]: reduction in protease activity

COC(=O)CN [Glycine methyl ester]
Activity class 0 = inactive 1 = low 2 = med 3 = high ([1]; 10 mM, Lice/Plutella: ND P): 0 (A pLD50 value less than 2 is considered inactive (Class 0))

O=S(=O)(F)Cc1ccccc1 [PMSF]
protease activity of egg shell washings compared to untreated controls [4]: no apparent reduction in protease activity

CC(C)CC(=O)N[C@H](C(=O)N[C@H](C(=O)N[C@@H](CC(C)C)[C@@H](O)CC(=O)N[C@@H](C)C(=O)N[C@@H](CC(C)C)[C@@H](O)CC(=O)O)C(C)C)C(C)C [pepstatin] (Isovaleryl-VV[Sta]A[Sta]-OH)
protease activity of egg shell washings compared to untreated controls [4]: no apparent reduction in protease activity
